The text below walks through data of ChEMBL document CHEMBL1134298, “An orally active, water-soluble neurokinin-1 receptor antagonist suitable for both intravenous and oral clinical administration” (J Med Chem, 2001).

One experiment addresses Substance-P receptor (Homo sapiens, UniProt P25103). Nature of the experiment: In vitro inhibition of binding of [125I]-substance P to tachykinin receptor 1.
Experiment [1] concerns Gerbillinae. Nature of the experiment: Inhibition of GR-73632-induced Gerbil foot tapping after immediate pretreatment iv. As to conditions: read-out: ID50 (the source's name). In kind it is functional.
Experiment [2] concerns Gerbillinae. Nature of the experiment: Inhibition of GR-73632-induced Gerbil foot tapping after 24 hr pretreatment iv. The class given is functional. Particulars: read-out: ID50 (the source's name).

Substance-P receptor, sequence (P25103 whole entry): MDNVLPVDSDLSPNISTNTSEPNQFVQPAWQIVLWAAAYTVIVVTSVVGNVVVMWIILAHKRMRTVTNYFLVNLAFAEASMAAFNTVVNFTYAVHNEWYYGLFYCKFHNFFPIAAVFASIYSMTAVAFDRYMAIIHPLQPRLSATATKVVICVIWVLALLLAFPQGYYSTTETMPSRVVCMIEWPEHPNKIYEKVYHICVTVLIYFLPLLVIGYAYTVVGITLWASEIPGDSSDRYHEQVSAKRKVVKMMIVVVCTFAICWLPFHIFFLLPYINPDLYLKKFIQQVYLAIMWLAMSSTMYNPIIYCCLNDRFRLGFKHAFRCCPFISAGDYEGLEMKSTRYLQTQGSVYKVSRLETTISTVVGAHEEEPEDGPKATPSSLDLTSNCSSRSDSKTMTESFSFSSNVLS

As usually defined, the IC50 is the point on the concentration scale where inhibition reaches its midpoint. A higher IC50 goes with lower potency. Take `C[C@@H](O[C@H]1OCCN(Cc2nn[nH]c2CN)[C@H]1c1ccc(F)cc1)c1cc(C(F)(F)F)cc(C(F)(F)F)c1`: the IC50 at Substance-P receptor was 0.25 nM. Also, the ED50 in the experiment on Gerbillinae [1] is 5.3 mg/kg.
The corresponding values for `CNCc1nn[nH]c1CN1CCOC(O[C@H](C)c2cc(C(F)(F)F)cc(C(F)(F)F)c2)[C@@H]1c1ccc(F)cc1` (stereo not given in full) are 0.29 nM and 3.1 mg/kg.
For `C[C@@H](O[C@H]1OCCN(Cc2n[nH]c(=O)[nH]2)[C@H]1c1ccc(F)cc1)c1cc(C(F)(F)F)cc(C(F)(F)F)c1` [APREPITANT], the ED50 worked out at 0.4 mg/kg with Gerbillinae [1] and 0.3 mg/kg in the experiment on Gerbillinae [2].
In the case of `C[C@@H](O[C@H]1OCCN(Cc2nn[nH]c2CN2CCCC2)[C@H]1c1ccc(F)cc1)c1cc(C(F)(F)F)cc(C(F)(F)F)c1`, the IC50 on Substance-P receptor was determined as 0.21 nM. For the same compound, the ED50 in the experiment with Gerbillinae [1] came to 0.4 mg/kg.
For `C[C@@H](OC1OCCN(Cc2n[nH]nc2CN(C)C)[C@H]1c1ccc(F)cc1)c1cc(C(F)(F)F)cc(C(F)(F)F)c1.Cl` (stereo not given in full), the IC50 at Substance-P receptor came out at 0.19 nM. The ED50 in the experiment with Gerbillinae [1] is 0.2 mg/kg; with Gerbillinae [2] it was 0.3 mg/kg.
`C[C@@H](OC1OCCN(Cc2n[nH]nc2CN2CCC2)[C@H]1c1ccc(F)cc1)c1cc(C(F)(F)F)cc(C(F)(F)F)c1` (stereo not given in full): the IC50 at Substance-P receptor worked out at 0.19 nM. Moreover, the ED50 with Gerbillinae [1] was 0.4 mg/kg.
In the same order, the values of `CC(C)N(Cc1[nH]nnc1CN1CCO[C@H](O[C@H](C)c2cc(C(F)(F)F)cc(C(F)(F)F)c2)[C@@H]1c1ccc(F)cc1)C(C)C` are 0.35 nM and 1 mg/kg.
